Experimental data published in patent US20250115573A1, “PYRIDAZINE-BASED PYRIDINE DERIVATIVES AS BIOLOGICALLY ACTIVE AGENTS” (priority 2023, published 2025).
In brackets after ≈: the same amount, converted by molar mass.

Assays:
[1] = DPPH antioxidant activity; conditions: DPPH method; ascorbic acid's IC50 value normalized to 100%
Description: The antioxidant activity was assessed by the DPPH (1,1-diphenyl-2-picryl hydrazyl) method employing ascorbic acid as a standard. A 0.1 mM solution of DPPH was freshly prepared in ethanol. Different dilutions (25, 20, 15, 10 and 5 μg/mL) of compounds 1-12 and ascorbic acid were also prepared in ethanol. The test and standard solutions were prepared by adding DPPH solution (2 mL) to the different dilutions (6 mL each) of the compounds 1-12 and ascorbic acid, respectively. The control solution was prepared by adding DPPH solution (2 mL) to ethanol (6 mL). The resultant mixtures were shaken and kept at 25° C. for half an hour. The absorbance of the test, standard, and control solutions was measured at 517 nm using a UV-Visible spectrophotometer. The experiment was performed in triplicate, and the antioxidant activity was calculated using the following equation,
wherein Ac is the absorbance of the control, and As is the absorbance of the test or standard sample. The IC50 values were obtained from the regression analysis.

human COX-2 = biological target: T1, human COX-2 (Homo sapiens, UniProt P35354); assay: In vitro COX-2 inhibitory activity; type: biochemical; conditions: for selectivity index: COX-2 over COX-1, selectivity index of celecoxib normalized to 100%; for COX-2 inhibitory activity in comparison to celecoxib: IC50 value of celecoxib normalized to 100%
T1 construct: purchased Cayman Chemicals 560131
T1 sequence (P35354 18-604): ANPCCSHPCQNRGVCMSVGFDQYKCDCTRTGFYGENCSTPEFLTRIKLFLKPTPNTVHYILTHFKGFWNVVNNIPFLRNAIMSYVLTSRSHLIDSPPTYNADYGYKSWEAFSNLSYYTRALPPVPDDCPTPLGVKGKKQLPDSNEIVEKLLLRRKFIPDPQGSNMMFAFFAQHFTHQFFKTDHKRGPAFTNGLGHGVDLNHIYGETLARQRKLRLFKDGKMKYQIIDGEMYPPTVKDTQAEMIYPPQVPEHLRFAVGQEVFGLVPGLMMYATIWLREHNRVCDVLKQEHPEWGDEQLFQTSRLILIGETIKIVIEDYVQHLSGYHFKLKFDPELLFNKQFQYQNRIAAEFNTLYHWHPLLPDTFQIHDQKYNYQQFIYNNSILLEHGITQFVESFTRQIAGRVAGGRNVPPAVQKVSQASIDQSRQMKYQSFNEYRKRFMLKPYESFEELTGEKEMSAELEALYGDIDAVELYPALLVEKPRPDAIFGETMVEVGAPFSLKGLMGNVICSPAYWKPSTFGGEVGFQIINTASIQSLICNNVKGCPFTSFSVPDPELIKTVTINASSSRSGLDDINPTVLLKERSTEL

[2] = tested on: Aspergillus niger (A. niger, MTCC 281); assay: Antimicrobial activity, serial plate dilution method; type: cell-based; conditions: MTCC281, against A. niger, Sabouraud dextrose medium
Description: (§1) Antimicrobial activity was performed by the serial plate dilution method (Medicinal Chemistry Research, 2017, 26, 1481-1496; Arabian Journal of Chemistry, 2016, 9, 1523-1531) against two Gram-positive bacteria, Staphylococcus aureus (S. aureus, ATCC 25923) and Enterococcus faecalis (E. faecalis, ATCC 29212); two Gram-negative bacteria, Escherichia coli (E. coli, ATCC 25922) and Pseudomonas aeruginosa (P. aeruginosa, ATCC 27853); and two fungi, Candida albicans (C. albicans, ATCC 2091) and Aspergillus niger (A. niger, MTCC 281). Antibacterial activity was performed on nutrient agar medium, whereas Sabouraud dextrose medium was used for the antifungal activity. The compounds 1-12 were tested at 100, 75, 50, 25, and 12.5 μg/mL concentrations. The standard antibiotics, ofloxacin and ketoconazole, were tested at 50, 25, and 12.5 μg/mL concentrations. Sterile dimethyl sulfoxide (DMSO) was used as a solvent for making the desired concentrations of the compounds ofloxacin and ketoconazole. Sterile DMSO also served as a control group. The minimum inhibitory concentrations (MICs) values of the synthesized compounds, ofloxacin and ketoconazole, were determined. The minimum inhibitory concentration (MIC) has been defined as the lowest concentration of a compound that inhibits the visible growth of the microorganisms in the media.

[3] = tested on: Candida albicans (C. albicans, ATCC 2091); assay: as above; type: cell-based; conditions: ATCC2091, against C. albicans, Sabouraud dextrose medium
Description: as §1

[4] = tested on: Enterococcus faecalis (E. faecalis, ATCC 29212); assay: as above; type: cell-based; conditions: ATCC29212, against E. faecalis, nutrient agar medium
Description: as §1

[5] = tested on: Staphylococcus aureus (S. aureus, ATCC 25923); assay: as above; type: cell-based; conditions: ATCC25923, against S. aureus, nutrient agar medium
Description: as §1

## COc1ccccc1-n1c(N)c(C#N)c(-c2ccc(-n3nc(-c4ccccc4)ccc3=O)cc2)c(C#N)c1=O [Compound 4, 6-Amino-1-(2-methoxyphenyl)-2-oxo-4-(4-(6-oxo-3-phenylpyridazin-1(6H)-yl)phenyl)-1,2-dihydropyridine-3,5-dicarbonitrile]
[1]
  antioxidant activity in comparison to ascorbic acid: 71.95%

## N#Cc1c(-c2ccc(-n3nc(-c4ccccc4)ccc3=O)cc2)c(C#N)c(=O)n(-c2ccccn2)c1N [Compound 6, 6-Amino-2-oxo-4-(4-(6-oxo-3-phenylpyridazin-1(6H) -yl)phenyl)-2H-[1,2′-bipyridine]-3,5-dicarbonitrile]
Human COX-2
  selectivity index: 101.61%

## N#Cc1c(-c2ccc(-n3nc(-c4ccccc4)ccc3=O)cc2)c(C#N)c(=O)n(-c2nccs2)c1N [Compound 7, 6-Amino-2-oxo-4-(4-(6-oxo-3-phenylpyridazin-1(6H) -yl)phenyl)-1-(thiazol-2-yl)-1,2-dihydro-pyridine-3,5-dicarbonitrile]
Human COX-2
  selectivity index: 121.73%

## Cc1c(-n2c(N)c(C#N)c(-c3ccc(-n4nc(-c5ccccc5)ccc4=O)cc3)c(C#N)c2=O)c(=O)n(-c2ccccc2)n1C [Compound 8, 6-Amino-1-(1,5-dimethyl-3-oxo-2-phenyl-2,3-dihydro-1H-pyrazol-4-yl)-2-oxo-4-(4-(6-oxo-3-phenylpyridazin-1(6H)-yl)phenyl) -1,2-dihydropyridine-3,5-dicarbonitrile]
[1]
  antioxidant activity in comparison to ascorbic acid: 78.32%

## N#Cc1c(-c2ccc(-n3nc(-c4ccccc4)ccc3=O)cc2)c(C#N)c(=O)n(-c2cccc(C(F)(F)F)c2)c1N [Compound 9, 6-amino-2-oxo-4-(4-(6-oxo-3-phenylpyridazin-1(6H) -yl)phenyl)-1-(3-(trifluoromethyl)phenyl)-1,2-dihydropyridine-3,5-dicarbonitrile]
[1]
  antioxidant activity in comparison to ascorbic acid: 70.90%
Human COX-2
  selectivity index: 111.0%
  COX-2 inhibitory activity in comparison to celecoxib: 100.89%
[2]
  MIC: 12.5 µg/mL (≈ 22.7 µM)
[3]
  MIC: 12.5 µg/mL (≈ 22.7 µM)

## N#Cc1c(-c2ccc(-n3nc(-c4ccccc4)ccc3=O)cc2)c(C#N)c(=O)n(-c2ccc(S(N)(=O)=O)cc2)c1N [Compound 10, 4-(6-amino-3,5-dicyano-2-oxo-4-(4-(6-oxo-3-phenylpyridazin-1(6H)-yl)phenyl)pyridin-1(2H)-yl)benzenesulfonamide]
[1]
  antioxidant activity in comparison to ascorbic acid: 74%
Human COX-2
  selectivity index: 121.20%
  COX-2 inhibitory activity in comparison to celecoxib: 105.95%
[4]
  MIC: 25 µg/mL (≈ 44.5 µM)
[5]
  MIC: 25 µg/mL (≈ 44.5 µM)

## O=C1O[C@H]([C@@H](O)CO)C(O)=C1O [ascorbic acid, reference compound]
[1]
  antioxidant activity in comparison to ascorbic acid: 100%

## CC(=O)N1CCN(c2ccc(OCC3COC(Cn4ccnc4)(c4ccc(Cl)cc4Cl)O3)cc2)CC1 (stereo not shown) [ketoconazole, reference compound]
[2]
  MIC: 12.5 µg/mL (≈ 23.5 µM)
[3]
  MIC: 12.5 µg/mL (≈ 23.5 µM)

## CC1COc2c(N3CCN(C)CC3)c(F)cc3c(=O)c(C(=O)O)cn1c23 (stereo not shown) [ofloxacin, reference compound]
[4]
  MIC: 25 µg/mL (≈ 69.2 µM)
[5]
  MIC: 25 µg/mL (≈ 69.2 µM)
